# Assay results published in patent publication US8450314B2, “Pyrimidopyridazine derivatives useful as P38 MAPK inhibitors” (Chiesi Farmaceutici S.p.A., priority 2009, dated 2013).
# Target: T1, p38α (Homo sapiens, UniProt Q16539)
# T1 construct: purchased Calbiochem 559324; host or cells: E. coli
# Assay: p38 Kinase Assay (ATF-2 phosphorylation ELISA)
# Type: biochemical
# Details: human recombinant p38 activated with MKK6; 2 h preincubation; ATP 250 μM; 1% DMSO; read-out: p38α inhibition
# Description: Human recombinant p38 enzyme expressed in E. coli and activated by incubation with MKK6 enzyme (Calbiochem #559324) is used as source of enzyme activity.
# The assay is carried in high binding, clear, flat bottom 96 well assay plates which have been coated with recombinant ATF-2 (Biosource #PHF0043). Test compounds are incubated with p38 kinase for 2 h prior to initiating the kinase assay by the addition of ATP to obtain an assay concentration of 250 μM. Phosphorylation of ATF-2 is detected and quantified using an ELISA. This consists of sequential incubation in the presence of anti-phospho-ATF2, biotinylated anti-IgG and streptavidin-HRP. Incubation with an HRP chromogenic substrate (TMB) results in absorbance that is proportional to the amount of phosphorylated substrate produced. Absorbance is detected using a multiwell plate reader.
# Compounds are diluted in DMSO prior to addition to assay buffer, the final DMSO concentration in the assay being 1%.
# The IC50 is defined as the concentration at which a given compound achieves 50% inhibition of control.
# T1 sequence (Q16539 whole entry): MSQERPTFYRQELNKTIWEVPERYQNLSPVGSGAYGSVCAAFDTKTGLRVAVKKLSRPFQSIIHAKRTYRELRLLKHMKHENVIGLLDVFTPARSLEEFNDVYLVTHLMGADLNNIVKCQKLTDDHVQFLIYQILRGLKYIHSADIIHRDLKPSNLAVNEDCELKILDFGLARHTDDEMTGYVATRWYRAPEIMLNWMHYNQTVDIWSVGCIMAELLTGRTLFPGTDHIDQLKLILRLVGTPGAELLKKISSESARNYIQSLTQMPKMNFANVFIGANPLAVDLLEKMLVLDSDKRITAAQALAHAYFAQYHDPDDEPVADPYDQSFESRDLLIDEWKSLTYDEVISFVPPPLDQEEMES
row,IC50,Structure (SMILES)
1,< 100 nM,"O=C(NCc1ccccc1Sc1ccc2c(-c3c(Cl)cccc3Cl)c(=O)ncn2n1)c1cc(F)cc(N2CCOCC2)c1 [Example 2, N-(2-{[5-(2,6-Dichlorophenyl)-6-oxo-6H-pyrimido[1,6-b]pyridazin-2-yl]sulfanyl}benzyl)-3-fluoro-5-(morpholin-4-yl)benzamide]"
2,< 10 nM,"NC(=O)C(c1ccc(Sc2ccccc2CNC(=O)c2cc(F)cc(N3CCOCC3)c2)nn1)c1c(Cl)cccc1Cl (centres unmarked) [Example 1, N-[2-({6-[2-Amino-1-(2,6-dichlorophenyl)-2-oxoethyl]pyridazin-3-yl}sulfanyl)benzyl]-3-fluoro-5-(morpholin-4-yl)benzamide]"
